Like-named read-outs stand apart in the source and are kept apart here.
Experiments:
Brugia Hsp90 = biological target: T1, Brugia Hsp90 (Brugia pahangi, UniProt O61998); assay: biochemical; format: binding; details: for dose-dependent reduction of the FP signal: Figure 3B, Brugia extract; for IC50: 6 nM cy3B-GA, 2 µg/well Brugia extract, 4°C, 24 h
T1 construct: from tissue; host or cells: whole adult B. pahangi worms from infected gerbils, ground and re-suspended in HFB assay buffer
Description: FP measurements were performed using black 96-well microtiter plates (Corning #3650), where both the excitation and the emission occurred from the top of the well, on an Analyst GT plate reader (Molecular Devices, Sunnyvale, CA). An integration time of 100 ms was used, and Z height was set at 3 mm (middle). The excitation polarization was set at static, and the emission polarization was set at dynamic. […] All FP values were expressed in millipolarization (mP) units. The mP values were calculated using the equation mP = 1000× [(IS – ISB) – (IP – IPB)]/[(IS – ISB) + (IP – IPB)], where IS is the parallel emission intensity measurement, IP is the perpendicular emission intensity sample measurement, and ISB and […] are the corresponding measurements for background (buffer). Total fluorescence was determined as 2×IP+IS.
For the competition studies, FP assays were performed as previously reported. […] Drugs were added to triplicate wells. […] Plates were incubated on a shaker at 4°C, and polarization values measured at 8 to 24 h.
(§1) Figure 3 Brugia assay validation. […] Ligand binding was plotted against the log10 inhibitor concentration, and EC50 values were calculated using a nonlinear least-square curve-fitting program in Prism 4.0. Points, mean; bars, s.d. […] Graphs show mean and SD of Mf output over a three-day period from six female worms per group.

B. pahangi Mf = assay: Mortality of purified B. pahangi Mf incubated in drug; set-up: species or system Brugia pahangi; details: day 7
Description: (§2) Mf output by individual female worms was assessed at two time points and adult worms were examined microscopically and their condition noted. Results are expressed as mean Mf output over a three-day period ± SD. Statistical significance between groups was calculated using the Mann Whitney test with P values <0.05 being considered significant.
In separate experiments, Mf were purified from the peritoneal cavity of infected animals and incubated alone in each of the drugs.

adult female B. pahangi [1] = test system: adult female B. pahangi; set-up: method as in PMID 15862576; details: adult worms ref 14; cited from earlier work
adult female B. pahangi [2] = assay: Mf output by adult female B. pahangi cultured in vitro with drug; set-up: species or system Brugia pahangi; details: GA at 1 µM; PU-H71 and PU-DZ8 at 5 and 10 µM; three-day period
Description: as §2, §1

adult B. pahangi = assay: Condition and activity of adult B. pahangi worms in vitro; set-up: species or system Brugia pahangi
Description: Mf output by individual female worms was assessed at two time points and adult worms were examined microscopically and their condition noted. Results are expressed as mean Mf output over a three-day period ± SD.

Compound: C[C@@H]1C[C@H]2O[C@@H]2/C=C\C=C\C(=O)Cc2c(Cl)c(O)cc(O)c2C(=O)O1 [radicicol]
- EC50 (Brugia Hsp90): 75.4 nM

Compound: ivermectin
- dose-dependent reduction of the FP signal (Brugia Hsp90): no such effect

Compound: COC1=C2C[C@@H](C)C[C@H](OC)[C@H](O)[C@@H](C)/C=C(\C)[C@H](OC(N)=O)[C@@H](OC)/C=C\C=C(/C)C(=O)NC(=CC1=O)C2=O [GA, geldanamycin]
- Mf dead (B. pahangi Mf; 1.0 µM): all dead
- onset of effect on Mf output (adult female B. pahangi [1]): ≤ 24 h
- effect on Mf release (adult female B. pahangi [2]): profound effect

Compound: CO[C@@H]1[C@@H](OC(N)=O)[C@@H](O)[C@H](Oc2ccc3c(O)c(NC(=O)c4ccc(O)c(CC=C(C)C)c4)c(=O)oc3c2C)OC1(C)C [novobiocin]
- EC50 (Brugia Hsp90): > 10000 nM

Compound: Nc1ncnc2c1ncn2[C@@H]1O[C@H](COP(=O)(O)OP(=O)(O)O)[C@@H](O)[C@H]1O [ADP]
- dose-dependent reduction of the FP signal (Brugia Hsp90): dose-dependent reduction of the FP signal

Compound: C#CCCCn1c(Cc2cc(OC)c(OC)c(OC)c2Cl)nc2c(N)nc(F)nc21 [PU-24FCl]
- Selectivity ratio (Brugia IC50 / SKBr3 IC50) (Brugia Hsp90): 2
- IC50 (Brugia Hsp90; Brugia IC50, Figure 4C): 1410 ± 10 nM

Compound: CC(C)NCCCn1c(Sc2cc3c(cc2I)OCC3)nc2c(N)ncnc21 [PU-WS10]
- Selectivity ratio (Brugia IC50 / SKBr3 IC50) (Brugia Hsp90; Brugia vs human SKBr3 Hsp90 species): 9

Compound: CC(C)NCCCn1c(Sc2cc3c(cc2I)OCO3)nc2c(N)ncnc21 [PU-H71]
- Mf dead (B. pahangi Mf; 5.0 µM): approximately 80%
- Mf dead (B. pahangi Mf; 10 µM): 100%
- activity of adult worms (adult B. pahangi; 5.0 µM): markedly less active
- activity of adult worms (adult B. pahangi; 10 µM): markedly less active
- concentration of drug required to kill adult Brugia (adult B. pahangi; in vitro): 2.5 µM
- effect on Mf release (adult female B. pahangi [2]): profound effect
- IC50 (Brugia Hsp90; Brugia IC50, Figure 4C): 80.8 ± 0.5 nM
- IC50 (Brugia Hsp90; IC50, inhibition of the binding of cy3B-GA to Brugia Hsp90, values in text for Figure 3C): 80 nM

From paper PMC2886105, “Assay Strategies for the Discovery and Validation of Therapeutics Targeting Brugia pahangi Hsp90” (PLoS Neglected Tropical Diseases, 2010)
